Reference: paper PMC10497682, “Synthesis and cytotoxicity evaluation of novel 1,8-acridinedione derivatives bearing phthalimide moiety as potential antitumor agents” (Scientific Reports, 2023)
Converted amounts (≈) assume the structure as drawn.

Assays:
Format in all cases: cell-based
MDA-MB-231 cells = assay: Morphological modifications under phase-contrast microscope, MDA-MB-231; conditions: IC50 dose, 48 h, vs untreated control
Description: (§1) The present study aimed to investigate the in vitro effects of five synthetic compounds (8c, 8f, 8h, 8i, and 8L) on the morphological modifications of four different cancer cell lines (A431, A549, H460, and MDA-MB-231) compared with untreated control cells (Fig. 5). The cells were treated with the compounds at IC50 doses for 48 h, and the morphological changes were observed under a phase-contrast microscope.
(§2) All cells were treated with compounds (8c, 8f, 8h, 8i and 8L) at IC50 doses for 48 h as compared to untreated control cells.
(§3) The cell lines were obtained from American Type Culture Collection (ATCC). With the usage of the Thiazolyl Blue Tetrazolium Bromide (MTT) method, various concentrations of the compounds (8c, 8f, 8h, 8i, and 8L) were evaluated for their cytotoxicity against the HSF, H460, A431, A549, and MDA-MB-231 cell lines. […] 200 µL dimethyl sulfoxide (DMSO) was added to each well and shook again for 5 min at 150 rpm, and then the viability of the cells was calculated by measuring the optical density at 630 nm subtracted from optical density at 570 nm. The relative cell viability (%) was determined as the given formula: Therelativecellviability%=ODS/ODC×100 whereas ODS is the mean optical density of sample, ODC is the mean OD of control group. […]

[1] = system: breast cancer cells (MDA-MB-231); assay: MTT cytotoxicity assay, MDA-MB-231
Description: (§4) The cell lines were obtained from American Type Culture Collection (ATCC). With the usage of the Thiazolyl Blue Tetrazolium Bromide (MTT) method, various concentrations of the compounds (8c, 8f, 8h, 8i, and 8L) were evaluated for their cytotoxicity against the HSF, H460, A431, A549, and MDA-MB-231 cell lines. In brief HSF, H460, A431, A549 and MDA-MB-231 cell lines cells (10 × 10^3) were cultured in 96 well plate for overnight at 37 °C, 5% CO2 and 88% humidity. The total volume of used DMEM supplemented medium and the synthesized compounds supernatant was 200 µL with final concentrations of 25, 50, 100, 150 and 200 µg/ml. The plate was incubated at 37 °C, 5% CO2 for 48 h. After incubation, debris and dead cells were removed by washing three times with fresh medium. […] 200 µL dimethyl sulfoxide (DMSO) was added to each well and shook again for 5 min at 150 rpm, and then the viability of the cells was calculated by measuring the optical density at 630 nm subtracted from optical density at 570 nm. The relative cell viability (%) was determined as the given formula: Therelativecellviability%=ODS/ODC×100 whereas ODS is the mean optical density of sample, ODC is the mean OD of control group. […] Tumor-selectivity index (TS value) was determined by dividing the mean IC50 against normal cells by the mean IC50 against tumor cells. […]

A549 cells = assay: Morphological modifications under phase-contrast microscope, A549; conditions: IC50 dose, 48 h, vs untreated control
Description: as §1, §2, §3

H460 cells = assay: Morphological modifications under phase-contrast microscope, H460; conditions: IC50 dose, 48 h, vs untreated control
Description: as §1, §2, §3

skin cancer cells (A431) = assay: MTT cytotoxicity assay, A431; conditions: for selectivity index (SI): mean IC50 against normal cells (HSF) divided by IC50 against A431
Description: (§5) The cell lines were obtained from American Type Culture Collection (ATCC). With the usage of the Thiazolyl Blue Tetrazolium Bromide (MTT) method, various concentrations of the compounds (8c, 8f, 8h, 8i, and 8L) were evaluated for their cytotoxicity against the HSF, H460, A431, A549, and MDA-MB-231 cell lines. In brief HSF, H460, A431, A549 and MDA-MB-231 cell lines cells (10 × 10^3) were cultured in 96 well plate for overnight at 37 °C, 5% CO2 and 88% humidity. The total volume of used DMEM supplemented medium and the synthesized compounds supernatant was 200 µL with final concentrations of 25, 50, 100, 150 and 200 µg/ml. The plate was incubated at 37 °C, 5% CO2 for 48 h. After incubation, debris and dead cells were removed by washing three times with fresh medium. […] of MTT solution (5 mg/ml of MTT in PBS buffer) was added to each well and shook for 5 min at 150 rpm to thoroughly mix the MTT into the media. The cells were incubated at 37 °C and 5% CO2 for 3–5 h to metabolize MTT by viable cells. 200 µL dimethyl sulfoxide (DMSO) was added to each well and shook again for 5 min at 150 rpm, and then the viability of the cells was calculated by measuring the optical density at 630 nm subtracted from optical density at 570 nm. The relative cell viability (%) was determined as the given formula: Therelativecellviability%=ODS/ODC×100 whereas ODS is the mean optical density of sample, ODC is the mean OD of control group. […] Tumor-selectivity index (TS value) was determined by dividing the mean IC50 against normal cells by the mean IC50 against tumor cells. Thus obtained TS values seem to reflect the in vivo antitumor activity even though these cells were different types of cells (epithelial oral squamous cell carcinoma cell lines versus mesenchymal normal oral cells).

EGFR = assay: qRT-PCR mRNA expression of EGFR in A431 cells; conditions: IC50 concentration, 2 days, fold vs untreated control
Description: (§6) In this study, the impact of potent antitumor compounds (8c, 8f, 8h, 8i, and 8L) on the expression levels of four tumor regulating genes, namely Topoisomerase II beta (TOP2B), mitogen-activated protein kinase (MAP K) (p38), tumor protein interacted with the mouse double minute 2 homolog (p53), and Epidermal growth factor receptor (EGFR), was investigated in skin cancer cells (A431). Evaluation the relative changes in mRNA expression levels of four key genes by performing quantitative real-time PCR (qRT-PCR) before and after treatment for 2 days with IC50 concentrations of compounds (8c, 8f, 8h, 8i, and 8L). Total RNA was extracted from the cells using the Gene JET RNA Purification Kit (Thermo Scientific, USA), followed by cDNA synthesis using the cDNA Synthesis Kit (Thermo Scientific, USA) protocol. SYBR green kit and specific primers (Forward/Reverse) were used for qRT-PCR: 5′-[…]-3’/5’-[…]-3′ for p38, 5′-[…]-3′/5′-[…]-3′ for p53, 5’-[…]-3’/5’-[…]-3’ for TOP2B, and 5’-[…]-3’/5’-[…]-3’ for EGFR. The expression levels of the tested genes were determined by using the 2^−ΔΔCT equation to assess any changes in upregulation and/or downregulation of gene expression.

A431 cells = assay: Morphological modifications under phase-contrast microscope, A431; conditions: IC50 dose, 48 h, vs untreated control
Description: as §1, §2, §3

lung cancer cells (H460) = assay: MTT cytotoxicity assay, H460; conditions: for selectivity index (SI): mean IC50 against normal cells (HSF) divided by IC50 against H460
Description: as §5

TOP2B = assay: qRT-PCR mRNA expression of TOP2B in A431 cells; conditions: IC50 concentration, 2 days, fold vs untreated control
Description: as §6

p53 = assay: qRT-PCR mRNA expression of p53 in A431 cells; conditions: IC50 concentration, 2 days, fold vs untreated control
Description: as §6

p38 = assay: qRT-PCR mRNA expression of p38 in A431 cells; conditions: IC50 concentration, 2 days, fold vs untreated control
Description: as §6

lung cancer cells (A549) = assay: MTT cytotoxicity assay, A549
Description: as §4

| SMILES | morphological modifications (MDA-MB-231 cells) | morphological modifications (A549 cells) | morphological modifications (H460 cells) | selectivity index (SI) (skin cancer cells (A431)) | relative change in mRNA expression level of EGFR (EGFR) | morphological modifications (A431 cells) | selectivity index (SI) (lung cancer cells (H460)) | relative change in mRNA expression level of TOP2B (TOP2B) | further results |
| --- | --- | --- | --- | --- | --- | --- | --- | --- | --- |
| CC1(C)CC(=O)C2=C(C1)N(CCOC(=O)CN1C(=O)c3ccccc3C1=O)C1=C(C(=O)CC(C)(C)C1)C2c1ccc2c(c1)OCO2 [Compound 8L, 2-(9-(benzo[d][1,3]dioxol-5-yl)-3,3,6,6-tetramethyl-1,8-dioxo-2,3,4,5,6,7,8,9-octahydroacridin-10(1H)-yl)ethyl 2-(1,3-dioxoisoindolin-2-yl)acetate] | significant cell damage and alterations in cell morphology |  |  |  |  |  |  |  | IC50 ([1]; Homo sapiens, MDA-MB-231 cells, MTT, 48 h, mean ± SEM): 27.7 ± 2.7 µg/mL (≈ 44.3 µM); selectivity index (SI) ([1]; mean IC50 against normal cells (HSF) divided by IC50 against MDA-MB-231): 4.4 |
| CC1(C)CC(=O)C2=C(C1)N(CCOC(=O)CN1C(=O)c3ccccc3C1=O)C1=C(C(=O)CC(C)(C)C1)C2c1ccc(F)cc1 [Compound 8c, 2-(9-(4-fluorophenyl)-3,3,6,6-tetramethyl-1,8-dioxo-2,3,4,5,6,7,8,9-octahydroacridin-10(1H)-yl) ethyl 2-(1,3-dioxoisoindolin-2-yl) acetate] |  | significant cell damage and alterations in the morphology | noticeable cell damage and alterations in the morphology |  |  |  |  |  |  |
| CC1(C)CC(=O)C2=C(C1)N(CCOC(=O)CN1C(=O)c3ccccc3C1=O)C1=C(C(=O)CC(C)(C)C1)C2c1ccc(-c2ccccc2)cc1 [Compound 8f, 2-(9-([1,1'-biphenyl]-4-yl)-3,3,6,6-tetramethyl-1,8-dioxo-2,3,4,5,6,7,8,9-octahydroacridin-10(1H)-yl) ethyl 2-(1,3-dioxoisoindolin-2-yl) acetate] | significant cell damage and alterations in cell morphology | significant cell damage and alterations in the morphology | noticeable cell damage and alterations in the morphology | 15.9 | lowest relative change | significant cell damage and alteration in the morphology | 7.7 | lowest relative change | IC50 (skin cancer cells (A431); Homo sapiens, A-431, A431 cells, MTT, 48 h, mean ± SEM): 11.9 ± 3.3 µg/mL; IC50 (lung cancer cells (H460); Homo sapiens, NCI-H460, H460 cells, MTT, 48 h, mean ± SEM): 24.6 ± 3.4 µg/mL; relative change in mRNA expression level of p53 (p53): highest relative change; relative change in mRNA expression level of p38 (p38): highest relative change |
| COc1ccc(C2C3=C(CC(C)(C)CC3=O)N(CCOC(=O)CN3C(=O)c4ccccc4C3=O)C3=C2C(=O)CC(C)(C)C3)cc1OC [Compound 8h, 2-(9-(3,4-dimethoxyphenyl)-3,3,6,6-tetramethyl-1,8-dioxo-2,3,4,5,6,7,8,9-octahydroacridin-10(1H)-yl) ethyl 2-(1,3-dioxoisoindolin-2-yl) acetate] |  |  |  | 4.5 | lowest relative change |  | 3.5 | lowest relative change |  |
| COc1ccc(C2C3=C(CC(C)(C)CC3=O)N(CCOC(=O)CN3C(=O)c4ccccc4C3=O)C3=C2C(=O)CC(C)(C)C3)cc1 [Compound 8i, 2-(9-(4-methoxyphenyl)-3,3,6,6-tetramethyl-1,8-dioxo-2,3,4,5,6,7,8,9-octahydroacridin-10(1H)-yl) ethyl 2-(1,3-dioxoisoindolin-2-yl) acetate] |  |  |  |  |  | significant cell damage and alteration in the morphology |  |  | IC50 (lung cancer cells (A549); Homo sapiens, A549 cells, MTT, 48 h, mean ± SEM): 37.4 ± 4.5 µg/mL; selectivity index (SI) (lung cancer cells (A549); mean IC50 against normal cells (HSF) divided by IC50 against A549): 4.0 |
